≈ marks a conversion by molar mass, not a printed value.
Assays:
[1] = system: infectious agents (strains tested); experiment: microbe, parasite or virus in culture; type: cell-based
[2] = Solubility of Posaconazole in water; type: physicochemical
[3] = Orally administered Posaconazole: plasma Cmax/Cavg by quartile and response rate for aspergillosis; type: in vivo, patients; settings: human, plasma, po, 800 mg/day
Text: (§1) In order to determine the target dosing for intravenous administration, it was necessary to determine a target range for mean Cavg and mean Cmax. Previous studies on orally administered Posaconazole are instructive in this regard.
(§2) At the same time, posaconazole has a long half-life and a large volume of distribution that results in sustained plasma levels and extensive penetration into body tissues with a likely accumulation in tissues. […] Thus, it can be inferred that posaconazole's long half-life and large volume of distribution results in sustained plasma and tissue levels allowing for safer and better tolerated pharmacokinetic behavior.

[4] = system: aspergillosis; experiment: as above; type: in vivo, patients
Text: as §1, §2

SMILES: CCC([C@@H](C)O)n1ncn(-c2ccc(N3CCN(c4ccc(OC[C@@H]5CO[C@@](Cn6cncn6)(c6ccc(F)cc6F)C5)cc4)CC3)cc2)c1=O (stereo partly shown) [Posaconazole]
- MIC ([1]; Kluyveromyces marxianus, read-out: MIC[90]): 0.063 to 0.25 µg/mL (≈ 0.0899 to 0.357 µM)
- MIC ([1]; Kodamaea ohmeri, Pichia ohmeri, read-out: Geometric Mean MIC): 0.016 µg/mL (≈ 0.0228 µM)
- MIC ([1]; Kodamaea ohmeri, Pichia ohmeri, read-out: MIC[90]): 0.016 µg/mL (≈ 0.0228 µM)
- MIC ([1]; Lodderomyces parapsilosis, Candida parapsilosis, read-out: Geometric Mean MIC): 0.073 µg/mL (≈ 0.104 µM)
- MIC ([1]; Lodderomyces parapsilosis, Candida parapsilosis, read-out: MIC[90]): 0.125 µg/mL (≈ 0.178 µM)
- MIC ([1]; Meyerozyma guilliermondii, Candida guilliermondii, read-out: Geometric Mean MIC): 0.178 µg/mL (≈ 0.254 µM)
- MIC ([1]; Meyerozyma guilliermondii, Candida guilliermondii, read-out: MIC[90]): 0.5 µg/mL (≈ 0.713 µM)
- MIC ([1]; Microsporum audouinii, read-out: Geometric Mean MIC): 0.25 µg/mL (≈ 0.357 µM)
- MIC ([1]; Microsporum audouinii, read-out: MIC[90]): 0.25 µg/mL (≈ 0.357 µM)
- MIC ([1]; Microsporum canis, read-out: Geometric Mean MIC): 0.034 µg/mL (≈ 0.0485 µM)
- MIC ([1]; Microsporum canis, read-out: MIC[90]): 0.5 µg/mL (≈ 0.713 µM)
- MIC ([1]; Mucor spp, read-out: Geometric Mean MIC): 0.694 µg/mL (≈ 0.99 µM)
- MIC ([1]; Mucor spp, read-out: MIC[90]): 16 µg/mL (≈ 22.8 µM)
- MIC ([1]; Nakaseomyces glabratus, Candida glabrata, read-out: Geometric Mean MIC): 0.672 µg/mL (≈ 0.959 µM)
- MIC ([1]; Nakaseomyces glabratus, Candida glabrata, read-out: MIC[90]): 2 µg/mL (≈ 2.85 µM)
- MIC ([1]; Nannizzia fulva, Microsporum fulvum, read-out: Geometric Mean MIC): 0.5 µg/mL (≈ 0.713 µM)
- MIC ([1]; Nannizzia fulva, Microsporum fulvum, read-out: MIC[90]): 0.5 µg/mL (≈ 0.713 µM)
- MIC ([1]; Nannizzia gypsea, Microsporum gypseum, read-out: Geometric Mean MIC): 0.042 µg/mL (≈ 0.0599 µM)
- MIC ([1]; Nannizzia gypsea, Microsporum gypseum, read-out: MIC[90]): 0.008 to 0.5 µg/mL (≈ 0.0114 to 0.713 µM)
- MIC ([1]; Nannizzia persicolor, Microsporum persicolor, read-out: Geometric Mean MIC): 0.25 µg/mL (≈ 0.357 µM)
- MIC ([1]; Nannizzia persicolor, Microsporum persicolor, read-out: MIC[90]): 0.25 µg/mL (≈ 0.357 µM)
- MIC ([1]; Paecilomyces spp, read-out: Geometric Mean MIC): 0.239 µg/mL (≈ 0.341 µM)
- MIC ([1]; Paecilomyces spp, read-out: MIC[90]): 0.5 µg/mL (≈ 0.713 µM)
- MIC ([1]; Papiliotrema laurentii, Cryptococcus laurentii, read-out: Geometric Mean MIC): 0.095 µg/mL (≈ 0.136 µM)
- MIC ([1]; Papiliotrema laurentii, Cryptococcus laurentii, read-out: MIC[90]): 0.008 to 0.5 µg/mL (≈ 0.0114 to 0.713 µM)
- MIC ([1]; Paracoccidioides brasiliensis, read-out: Geometric Mean MIC, Paracoccidioides brasiliensis): 0.048 µg/mL (≈ 0.0685 µM)
- MIC ([1]; Paracoccidioides brasiliensis, read-out: MIC[90], Paracoccidioides brasiliensis): 0.125 µg/mL (≈ 0.178 µM)
- MIC ([1]; Penicillium spp, read-out: Geometric Mean MIC): 0.308 µg/mL (≈ 0.44 µM)
- MIC ([1]; Penicillium spp, read-out: MIC[90]): 1 µg/mL (≈ 1.43 µM)
- MIC ([1]; Pichia etchel, read-out: Geometric Mean MIC): 0.125 µg/mL (≈ 0.178 µM)
- MIC ([1]; Pichia etchel, read-out: MIC[90]): 0.125 µg/mL (≈ 0.178 µM)
- MIC ([1]; Pichia kudriavzevii, Candida krusei, read-out: Geometric Mean MIC): 0.335 µg/mL (≈ 0.478 µM)
- MIC ([1]; Pichia kudriavzevii, Candida krusei, read-out: MIC[90]): 1 µg/mL (≈ 1.43 µM)
- MIC ([1]; Pleurothecium obovoideum, Ramichloridium obovoideum, read-out: Geometric Mean MIC): 0.044 µg/mL (≈ 0.0628 µM)
- MIC ([1]; Pleurothecium obovoideum, Ramichloridium obovoideum, read-out: MIC[90]): 0.031 to 0.063 µg/mL (≈ 0.0442 to 0.0899 µM)
- MIC ([1]; Rhizomucor spp, read-out: Geometric Mean MIC): 0.016 µg/mL (≈ 0.0228 µM)
- MIC ([1]; Rhizomucor spp, read-out: MIC[90]): 0.016 µg/mL (≈ 0.0228 µM)
- MIC ([1]; Rhizopus spp, read-out: Geometric Mean MIC): 1 µg/mL (≈ 1.43 µM)
- MIC ([1]; Rhizopus spp, read-out: MIC[90]): 4 µg/mL (≈ 5.71 µM)
- MIC ([1]; Saccharomyces cerevisiae, read-out: Geometric Mean MIC): 0.249 µg/mL (≈ 0.355 µM)
- MIC ([1]; Saccharomyces cerevisiae, read-out: MIC[90]): 1 µg/mL (≈ 1.43 µM)
- MIC ([1]; Scedosporium apiospermum, read-out: Geometric Mean MIC): 0.173 µg/mL (≈ 0.247 µM)
- MIC ([1]; Scedosporium apiospermum, read-out: MIC[90]): 1 µg/mL (≈ 1.43 µM)
- MIC ([1]; Scedosporium boydii, Pseudallescheria boydii, read-out: Geometric Mean MIC): 0.365 µg/mL (≈ 0.521 µM)
- MIC ([1]; Scedosporium boydii, Pseudallescheria boydii, read-out: MIC[90]): 1 µg/mL (≈ 1.43 µM)
- MIC ([1]; Sporothrix schenckii, read-out: Geometric Mean MIC): 0.771 µg/mL (≈ 1.1 µM)
- MIC ([1]; Sporothrix schenckii, read-out: MIC[90]): 2 µg/mL (≈ 2.85 µM)
- MIC ([1]; Trichophyton mentagrophytes, read-out: Geometric Mean MIC): 0.036 µg/mL (≈ 0.0514 µM)
- MIC ([1]; Trichophyton mentagrophytes, read-out: MIC[90]): 0.125 µg/mL (≈ 0.178 µM)
- MIC ([1]; Trichophyton rubrum, Trichophyton raubitschekii, read-out: Geometric Mean MIC): 0.25 µg/mL (≈ 0.357 µM)
- MIC ([1]; Trichophyton rubrum, Trichophyton raubitschekii, read-out: MIC[90]): 0.25 µg/mL (≈ 0.357 µM)
- MIC ([1]; Trichophyton rubrum, read-out: Geometric Mean MIC): 0.047 µg/mL (≈ 0.0671 µM)
- MIC ([1]; Trichophyton rubrum, read-out: MIC[90]): 0.25 µg/mL (≈ 0.357 µM)
- MIC ([1]; Trichophyton soudanense, read-out: Geometric Mean MIC): 0.5 µg/mL (≈ 0.713 µM)
- MIC ([1]; Trichophyton soudanense, read-out: MIC[90]): 0.5 µg/mL (≈ 0.713 µM)
- MIC ([1]; Trichophyton spp, read-out: Geometric Mean MIC): 0.036 µg/mL (≈ 0.0514 µM)
- MIC ([1]; Trichophyton spp, read-out: MIC[90]): 0.064 µg/mL (≈ 0.0913 µM)
- MIC ([1]; Trichophyton tonsurans, read-out: Geometric Mean MIC): 0.029 µg/mL (≈ 0.0414 µM)
- MIC ([1]; Trichophyton tonsurans, read-out: MIC[90]): 0.125 µg/mL (≈ 0.178 µM)
- MIC ([1]; Trichosporon spp, read-out: Geometric Mean MIC): 0.63 µg/mL (≈ 0.899 µM)
- MIC ([1]; Trichosporon spp, read-out: MIC[90]): 0.5 to 1 µg/mL (≈ 0.713 to 1.43 µM)
- MIC ([1]; Yarrowia lipolytica, read-out: Geometric Mean MIC): 0.144 µg/mL (≈ 0.205 µM)
- MIC ([1]; Yarrowia lipolytica, read-out: MIC[90]): 0.016 to 1 µg/mL (≈ 0.0228 to 1.43 µM)
- Solubility in water [2]: minimally soluble in water
- Cmax ([3]; Quartile 1, n = 17): 142 ng/mL
- Cmax ([3]; Quartile 2, n = 17): 467 ng/mL
- Cmax ([3]; Quartile 3, n = 17): 852 ng/mL
- Cmax ([3]; Quartile 4, n = 16): 1480 ng/mL
- Response (response rate for aspergillosis) ([4]; Quartile 1): 24%
- Plasma Cavg, mean ([4]; Quartile 1, n = 17): 134 ng/mL
- Response (response rate for aspergillosis) ([4]; Quartile 2): 53%
- Plasma Cavg, mean ([4]; Quartile 2, n = 17): 411 ng/mL
- Response (response rate for aspergillosis) ([4]; Quartile 3): 53%
- Plasma Cavg, mean ([4]; Quartile 3, n = 17): 719 ng/mL
- Response (response rate for aspergillosis) ([4]; Quartile 4): 71%
- Plasma Cavg, mean ([4]; Quartile 4, n = 16): 1250 ng/mL
